PubChem BioAssay (NCI)
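At the GI50, growth is halved. TGI: total growth inhibition.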

Tests used:
Test in all cases: NCI tumour cell line growth inhibition, 384-well format
HCC-2998 colon = system: HCC-2998 colon
COLO 205 colon = system: COLO 205 colon
PC-3 prostate = system: PC-3 prostate
HS 578T breast = system: HS 578T breast
HOP-92 NSCLC = system: HOP-92 NSCLC
EKVX NSCLC = system: EKVX NSCLC
SW-620 colon = system: SW-620 colon
ACHN renal = system: ACHN renal
UO-31 renal = system: UO-31 renal
SF-268 CNS = system: SF-268 CNS
K-562 leukemia = system: K-562 leukemia
HT29 colon = system: HT29 colon
MDA-MB-231 breast = system: MDA-MB-231 breast
SK-OV-3 ovarian = system: SK-OV-3 ovarian
TK-10 renal = system: TK-10 renal
HCT-15 colon = system: HCT-15 colon
OVCAR-4 ovarian = system: OVCAR-4 ovarian
SNB-75 CNS = system: SNB-75 CNS
OVCAR-5 ovarian = system: OVCAR-5 ovarian
SNB-19 CNS = system: SNB-19 CNS
786-0 renal = system: 786-0 renal
HOP-62 NSCLC = system: HOP-62 NSCLC
NCI-H522 lung = system: NCI-H522 lung
SK-MEL-28 melanoma = system: SK-MEL-28 melanoma
NCI-H226 lung = system: NCI-H226 lung
RPMI-8226 leukemia = system: RPMI-8226 leukemia
SN12C renal = system: SN12C renal
A498 renal = system: A498 renal
SF-539 CNS = system: SF-539 CNS

CCOCC1(COCC)CCC(c2[nH]ncc2CN(C)CCNC)CC1
GI50 (HCC-2998 colon): 16.3 µM | TGI (HCC-2998 colon): 38.3 µM | GI50 (COLO 205 colon): 20.5 µM | TGI (COLO 205 colon): > 100 µM | GI50 (PC-3 prostate): > 100 µM | TGI (PC-3 prostate): > 100 µM | GI50 (HS 578T breast): > 100 µM | TGI (HS 578T breast): > 100 µM | GI50 (HOP-92 NSCLC): 35.2 µM | TGI (HOP-92 NSCLC): > 100 µM | GI50 (EKVX NSCLC): > 100 µM | TGI (EKVX NSCLC): > 100 µM | GI50 (SW-620 colon): > 100 µM | TGI (SW-620 colon): > 100 µM | GI50 (ACHN renal): 2030 nM | TGI (ACHN renal): > 100 µM | GI50 (UO-31 renal): > 100 µM | TGI (UO-31 renal): > 100 µM | GI50 (SF-268 CNS): > 100 µM | TGI (SF-268 CNS): > 100 µM | GI50 (K-562 leukemia): 4.11 µM | TGI (K-562 leukemia): > 100 µM | GI50 (HT29 colon): 10.7 µM | TGI (HT29 colon): 35.8 µM | GI50 (MDA-MB-231 breast): 42.5 µM | TGI (MDA-MB-231 breast): > 100 µM | GI50 (SK-OV-3 ovarian): 47.1 µM | TGI (SK-OV-3 ovarian): > 100 µM | GI50 (TK-10 renal): 43.4 µM | TGI (TK-10 renal): > 100 µM | GI50 (HCT-15 colon): 18.6 µM | TGI (HCT-15 colon): > 100 µM | GI50 (OVCAR-4 ovarian): > 100 µM | TGI (OVCAR-4 ovarian): > 100 µM | GI50 (SNB-75 CNS): > 100 µM | TGI (SNB-75 CNS): > 100 µM | GI50 (OVCAR-5 ovarian): 28.5 µM | TGI (OVCAR-5 ovarian): > 100 µM | GI50 (SNB-19 CNS): > 100 µM | TGI (SNB-19 CNS): > 100 µM | GI50 ([…]-0 renal): 10.4 µM | TGI (786-0 renal): > 100 µM | GI50 (HOP-62 NSCLC): 71 µM | TGI (HOP-62 NSCLC): > 100 µM | GI50 (NCI-H522 lung): 96.8 µM | TGI (NCI-H522 lung): > 100 µM | GI50 (SK-MEL-28 melanoma): 11.3 µM | TGI (SK-MEL-28 melanoma): 29.3 µM | GI50 (NCI-H226 lung): > 100 µM | TGI (NCI-H226 lung): > 100 µM | GI50 (RPMI-8226 leukemia): 2520 nM | TGI (RPMI-8226 leukemia): 57.4 µM | GI50 (SN12C renal): 64.8 µM | TGI (SN12C renal): > 100 µM | GI50 (A498 renal): 5.94 µM | TGI (A498 renal): > 100 µM | GI50 (SF-539 CNS): 90.4 µM
